# From a melting point compilation (Tetko et al.; mined from patent text by program, amines drawn as free bases though some values may be those of a salt)
row,Compound,melting point [°C]
1,Cc1ccc2c(O)c3c(=O)[nH][nH]c(=O)c3nc2c1,> 395
2,CCCCc1sc2ccccc2c1-c1ccc(-c2ccc(OC(C(=O)O)c3ccccc3)cc2)cc1 (stereo not given),157 to 159
3,CC(C)(C)OC(=O)N1CCC(c2nc(-c3ccncc3)c(-c3ccc(F)cc3)[nH]2)CC1,157 to 160
4,CC(C)(C)OC(=O)N1CCC(N2CCN(CCCN3CCCCC3)C2=C(C#N)C#N)CC1,141 to 143
5,OCc1ccc(-c2nn(Cc3ccccc3)c3ccccc23)cc1,110 to 112
6,Cc1nc2ccccc2c2c1OCCN2,203 to 204
7,CC(C)Oc1c(C(N)=O)oc2ccc(Cl)cc12,154 to 155
8,CC(C)Oc1nc(SCc2cccc(C(F)(F)F)c2)nc2[nH]c(=O)cnc12,205 to 206
9,CC1Cn2c(=O)[nH]c3cccc(c32)CN1Cc1ccccc1 (stereo not given),205
10,CN(C)c1ncc(-c2cccc(N)c2)cn1,116 to 117
11,O=C1CCC(c2ccc(-n3ccnc3)nc2)=NN1,276 to 278
12,CC(C)[C@H]1c2ccc(F)cc2CC[C@]1(O)CC(=O)N(C)CCCc1nc2ccccc2[nH]1,132 to 138
13,COC(=O)CCCc1cc2cc(Cl)ccc2n1S(=O)(=O)c1cccc2nc(C)sc12,129
14,CC(C)(C)OC(=O)N[C@@H](Cc1ccccc1)C(=O)CCC(=O)O,108 to 110
15,COc1cccc2c1CC1OC1C2 (stereo not given),49.5 to 50.5
16,CCON=C(CC)C1=C(O)CC(c2c(C)c([N+](=O)[O-])c(C)c([N+](=O)[O-])c2C)CC1=O (stereo not given),170
17,CCOC(=O)Nc1ccc2c(c1)C(c1ccccc1Cl)=CCC(=O)N2,241
18,COc1ccc(Cc2ccc(NC3=NCCN3)cc2)s1,122 to 123
19,CCCCCCCCCCCCCCCCCC(O)C[N+](=O)[O-] (stereo not given),55 to 56
20,Cn1c(Cc2cccc(C(F)(F)F)c2)nc2c(-c3cccc(C(=O)NCCC#N)c3)cccc21,168 to 169
21,CC(C)(CO)NS(=O)(=O)c1cccc(NC(=O)c2cnn3c(C(F)(F)F)cc(-c4ccc(OC(F)(F)F)cc4)nc23)c1,212
22,COC(=O)/C=C(\CCCCc1ccccc1)Sc1ccc(OC)c(OC)c1,53 to 55
23,O=[N+]([O-])c1c(F)cc(N2CCOCC2)cc1F,112 to 114
24,COc1ccc(N2CCN(c3ccc(NC(=S)NC(C)(C)CO)cc3)CC2)cc1,222
25,COc1cc(C(=O)NS(=O)(=O)c2ccccc2Cl)ccc1Cc1cn(C)c2ccc(CCNC(=O)N3CCOCC3)cc12,175 to 181

row,Compound,melting point [°C]
1,COc1ccc2c(c1)Sc1c(cc(OC)c(O)c1Br)N2C(=O)OC(C)OC(C)=O (stereo not given),162 to 164
2,c1ccc2c(c1)nc1n2CCC1,86 to 88
3,COc1cc2ncnc(N3CCN(C(=O)Nc4ccc(N)cc4)CC3)c2cc1OC,215 to 217
4,O=c1c(CCCc2ccncc2)cc2cccnc2n1-c1ccc2nonc2c1,192 to 194
5,CCOC(=O)N1CCN(c2ccc(-n3cnn(C(CC)C(=O)c4ccc(Cl)cc4)c3=O)cn2)CC1 (stereo not given),139
6,CC(C)(C)c1cc(-c2nn(C(=O)c3ccc(Cl)cc3)c3ncccc23)cc(C(C)(C)C)c1O,256 to 258
7,NC(=O)Cc1nc(C(=O)c2ccccc2)no1,156 to 158
8,O=C(O)Cc1ccc(-c2cn3cccnc3n2)cc1,264 to 265
9,CSc1nc(O)c(C(N)=O)c(O)n1,> 360
10,FC(F)(F)C1(c2ccccc2)CCNCC1,87.6
11,COC(=O)/C=C/c1ccc(OCCCC(=O)OC)cc1O,108 to 112
12,Nc1ccn(CC(O)CO)c(=O)n1 (stereo not given),169 to 171
13,CCN1CCN(c2nccc(Oc3ccc(NC(=O)c4cc(F)cc(N5CCCCC5)c4)c4ccccc34)n2)CC1,86 to 87
14,Cc1ccccc1-c1cc(O)ncc1C(=O)N(C)Cc1cc(C(F)(F)F)cc(C(F)(F)F)c1,91 to 93
15,c1ccc(C2NCCc3c2[nH]c2ccccc32)cc1 (stereo not given),175 to 177
16,CCCCc1nc(SC)c(C(=O)OCC)n1Cc1ccc(-c2ccc(S(=O)(=O)NC#N)cc2C)cc1,211
17,C#CCN1C(Oc2ccc(C)cc2)=NS(=O)(=O)N=C1Oc1ccc(C)cc1,279 to 280
18,COc1ccc(-c2oc3cc(NS(C)(=O)=O)c(Oc4ccccc4)cc3c(=O)c2O)cc1OC,222 to 224
19,O=C(NCCCCCCOC(=O)N1CCC2(CCCC2)CC1)OC1CCN(C(=O)Oc2cccc(Oc3ccccc3)c2)CC1,72 to 120
20,COc1cccc(NC(=O)NC2N=C(c3ccccc3F)c3ccccc3N(C)C2=O)c1 (stereo not given),271 to 273
21,CC(O)c1nccc2ccccc12 (stereo not given),60 to 62
22,CC(Oc1ccc(Oc2ccc(C(F)(F)F)cn2)cc1)C(=O)OCCOCc1ccccc1 (stereo not given),44 to 47
23,CC1C(=S)Nc2c1cc(F)c(F)c2F (stereo not given),177 to 178
24,CSc1nn2c(N)cc(C(C)C)nc2c1S(=O)(=O)c1ccccc1,210 to 211
25,CS(=O)(=O)c1ccccc1CNC(=O)[C@@H]1CCCN(c2cccc3c2C(=O)N(Cc2ccncc2)C3=O)C1,101 to 102

row,Compound,melting point [°C]
1,CCNC(=O)C1(C/C=C/c2ccccc2)c2ccccc2-c2ccccc21,144
2,CN(C)c1ccc(C2CCCN2S(=O)(=O)c2ccc(Cl)cc2)cc1F (racemic),99
3,CN(C(=O)c1ccc2c(c1)nc(NC(=O)c1cccs1)n2CCCO)C1CCCCC1,105 to 107
4,CN1CCC(OC2c3ccccc3CCn3c2nc(I)c3C#N)CC1 (stereo not given),195
5,CC(=O)OC1CCc2cc3ccccc3n2C1 (stereo not given),90 to 95
6,Cn1c([N+](=O)[O-])cnc1C=O,90 to 94
7,Cn1c(-c2ccc(-c3ccccn3)cc2)c(C(=O)N2CCC(OCC(=O)O)CC2)c(=O)n1-c1ccc(C(=N)N)cc1,238 to 249
8,CC(C)(C)OC(=O)COc1ccc(/C=C/C(=O)C(F)(F)F)cc1,112 to 113
9,COc1ccc(CCNC(=O)C(=O)O)cc1OC1CCCC1,123 to 124
10,O=c1[nH]cnc2c(Br)scc12,226 to 229
11,COc1ccc2c(c1F)CSCC2=O,85 to 92
12,CN1CCC2(OCCO2)C2(CCCC2)C1=O,84 to 85
13,CC1(O)C(O)C(CO)OC1n1ccc2c(N=[N+]=[N-])ncnc21 (stereo not given),179 to 180
14,Nc1ccc(Cl)cc1C(=O)c1cccc(Cl)c1,118 to 119
15,CC(=O)N1CCC(Cl)c2nc3ccccc3c(C)c2C1 (stereo not given),< 20
16,COc1ccc(C(C)C)cc1-c1cc(-c2nnnn2C2CCCN(C(=O)OC(C)(C)C)C2)c(O)cc1O (stereo not given),227 to 229
17,CC(C)(C)OC(=O)CC(=O)c1ccco1,74 to 75
18,O=C1NC(=O)N(CCc2ccccc2)C1O (stereo not given),168 to 169
19,CC(=O)c1ccc2c(c1)c(=O)c(C(=O)O)cn2Cc1ccc(F)cc1,206 to 208
20,O=S(=O)(Nc1cccc(Nc2nc(NC3CCCC3)c3nc[nH]c3n2)c1)C(F)(F)F,243 to 246
21,Cc1ccc(C)c(NC(=O)N2CCC(C#N)CC2)c1,187 to 190
22,CC1=NCC2CN=C(c3ccccc3F)c3cc(Cl)ccc3N12 (stereo not given),142 to 144
23,O=C1C(Cl)=C(N2CCN(C(=O)Nc3ccccc3Cl)CC2)C(=O)c2ccccc21,160 to 163
24,CCOC(=O)C(=CNc1nncs1)C(=O)c1cc(F)c(Cl)nc1Cl,137 to 140
25,O=C(NC1CC1)c1cc(Nc2nc(N3CCCC3c3ccccn3)nc3ccoc23)[nH]n1 (stereo not given),238

row,Compound,melting point [°C]
1,CC1(C)CC(=O)c2c(ncc3[nH]c4ccccc4c23)C1,224 to 225
2,O=C1c2ccccc2C(=O)N1Cc1cc(F)ccc1[N+](=O)[O-],198 to 200
3,N#Cc1ccc(-c2ccc(Cl)cc2)[nH]c1=O,330 to 339
4,COc1cccc(OC)c1-c1cc2c(ccn2C)c2c1C(=O)NC2=O,285 to 288
5,CC(=O)ONC(=N)c1ccc(-c2ccc(-c3ccc(C(=N)NOC(C)=O)nc3)o2)cc1,266 to 268
6,CCOC(=O)C1=C(C)NC(=S)N(C(=O)OCC)C1c1ccccc1OC (stereo not given),117 to 118
7,Cc1cc(CO)c(C)cc1O,164 to 165
8,COc1ccc2[nH]c3c(c2c1)CC(N(C)C)CC3 (stereo not given),126 to 128
9,CCOC(=O)c1c2n(c3cc(N4CCN(C)CC4)c(F)cc3c1=O)CCCC2,163 to 165
10,COc1cccc(-c2noc3ccsc23)c1,51 to 52
11,O=c1[nH]c2ccccc2n1CCCN1CCC(c2nsc3ccccc23)CC1,185 to 187
12,CCOC(=O)c1cnn2c(-c3cccc(C)c3)ccnc12,69 to 70
13,COC(=O)Cc1ccccc1NC(=S)N(C)NC(=O)c1ccccc1,148 to 150
14,O=C(c1ccccc1)c1ccc([N+](=O)[O-])c(F)c1,77 to 79
15,Cc1cccc(-c2nc(CCOc3ccc(CCCC4OC(=O)NC4=O)cc3)c(C)o2)c1 (stereo not given),149 to 150
16,COc1cccc(C=CC(=O)C(=O)O)c1OC,136 to 138
17,Cc1ccc(CCc2ccnc(N)c2N)cc1,119 to 121
18,Clc1cccc(Oc2nnc(Cc3ccncc3)c3ccccc23)c1,143 to 145
19,Cc1cc(C(=O)O)cc(C)c1OCCNC(=O)C1Cc2ccccc2N1S(=O)(=O)c1ccc(-c2cccc(C(F)(F)F)c2)cc1 (stereo not given),120 to 126
20,Fc1ccc(-c2cc(N3CCNCC3)nnc2C(F)(F)F)cc1,137
21,CC(C)c1nc(-c2ccccc2Cc2ccccc2)cc(-c2ccc(F)cc2)c1C=O,205 to 207
22,COc1cc(-c2nc(NC(=O)c3cc4cc(C)cc(C)c4n3CC(=O)O)sc2CCC2CCCCC2)c(OC)cc1Cl,241
23,COC(=O)n1c(SCc2nccc(SCCN3CCOCC3)c2C)nc2ccccc21,151 to 153
24,Cc1ccc(S(=O)(=O)N2CCc3ccccc3C(Oc3cccc(C(F)(F)F)c3)C2)cc1 (stereo not given),112 to 114
25,CC(C)OCc1cnc2c(NC(=O)c3c(Cl)cccc3Cl)cccc2c1Cl,117 to 118
